Laboratory results taken from patent publication US20260184693A1, “INHIBITORS OF SOLUTE CARRIER FAMILY 6A MEMBER 19 (SLC6A19) AND METHODS OF USE THEREOF” (Maze Therapeutics, Inc., priority 2022, published 2026).
pIC50: −log10 of the molar value.

Experiments:
human SLC6A19 [1] = biological target: T1, human SLC6A19 (Homo sapiens, UniProt Q695T7); experiment: Example B-1: L-[3H]leucine uptake, liquid scintillation, in CHO cells with doxycycline-inducible expression of human SLC6A19 and TMEM27; assay type: cell-based; settings: read-out: SLC6A19_Radioligand Uptake Assay IC50
T1 construct: expressed in transfected cells
T1 sequence (Q695T7 1-634): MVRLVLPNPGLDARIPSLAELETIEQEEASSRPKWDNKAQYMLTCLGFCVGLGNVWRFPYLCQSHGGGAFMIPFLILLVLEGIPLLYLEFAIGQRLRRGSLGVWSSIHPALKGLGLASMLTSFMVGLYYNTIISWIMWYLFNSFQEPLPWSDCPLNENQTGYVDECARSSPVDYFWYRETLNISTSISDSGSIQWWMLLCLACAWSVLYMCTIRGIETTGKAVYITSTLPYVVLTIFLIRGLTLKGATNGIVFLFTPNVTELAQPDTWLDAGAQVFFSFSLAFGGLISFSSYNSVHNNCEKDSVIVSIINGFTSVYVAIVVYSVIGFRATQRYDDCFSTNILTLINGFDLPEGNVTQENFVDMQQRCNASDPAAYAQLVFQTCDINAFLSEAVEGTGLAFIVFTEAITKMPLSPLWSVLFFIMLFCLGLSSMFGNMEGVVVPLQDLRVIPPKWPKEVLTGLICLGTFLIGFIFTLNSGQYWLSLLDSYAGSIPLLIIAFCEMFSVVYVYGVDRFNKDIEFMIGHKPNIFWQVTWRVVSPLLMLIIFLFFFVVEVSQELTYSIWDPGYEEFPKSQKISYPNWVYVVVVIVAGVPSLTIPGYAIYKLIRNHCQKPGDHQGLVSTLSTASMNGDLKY
T1 sequence (Q9HBJ8 15-222 partner): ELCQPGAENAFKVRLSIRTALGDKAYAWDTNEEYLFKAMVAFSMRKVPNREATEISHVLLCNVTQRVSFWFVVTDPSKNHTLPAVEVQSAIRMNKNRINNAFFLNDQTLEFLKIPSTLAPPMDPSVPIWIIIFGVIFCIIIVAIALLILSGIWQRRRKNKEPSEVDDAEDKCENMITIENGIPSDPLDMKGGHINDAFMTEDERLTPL
Experimental: CHO cells with doxycycline-inducible expression of human SLC6A19 and TMEM27 were maintained in T150 cell culture treated flasks using cell culture media, which consisted of 1×DMEM/F12 (Gibco, 11330057), 10% Tet System-Approved FBS (Gibco, A4736401), 100 U/mL Penicillin-Streptomycin (Gibco, 15140122), 1×GlutaMAX™ Supplement (Gibco, 35050061), 1 mM Sodium Pyruvate (Gibco, 11360070), 1.1 mg/mL Sodium Bicarbonate (Gibco, 25080094), 5 μg/mL Blasticidin (InvivoGen, ant-bl-1), 150 μg/mL Hygromycin B Gold (InvivoGen, ant-hg-5), and 500 μg/mL G418 (Sigma-Aldrich, G8168-100 mL). In preparation for the assay, this media was aspirated and 5 mL of TryμLE™ Express Enzyme (Gibco, 12605010) was added to each flask to initiate cell dissociation. The flasks were then incubated (humidified, 37° C. with 5% CO2) for 2 minutes. After incubation, 10 mL of pre-warmed cell culture media was added to each flask. The cell suspension was collected and centrifuged for 5 minutes at 200xg.
The supernatant was aspirated and the pellet was resuspended in 5 mL pre-warmed cell culture media. The resuspended cells were counted using the Countess Cell Counting Chamber (Invitrogen) and the cell concentration of the suspension was readjusted to 1 million live cells/mL using pre-warmed cell culture media. 25 uL/well (25,000 cells/well) of readjusted cell suspension was dispensed into Poly-D-Lysine 384-well white/clear plates (Corning, 354660) using a MultiDrop Combi (Thermo Electron Corp). To induce expression of Human SLC6A19 and TMEM27, 25 uL/well of cell culture media containing 2 μg/mL doxycycline was added to the first 23 columns of each plate resulting in a final concentration of […] doxycycline. 25 μL/well of cell culture media was added to the last column of each plate, to act as negative control wells for Human SLC6A19 and TMEM27 expression. Assay plates were then incubated (humidified, 37° C. with 5% CO2) for 18 hours. After incubation, the media was aspirated and the wells were washed 4 times with pre-warmed HBSS (Sigma-Aldrich, H8264-1L) using an Apricot S-Pipette S2 (Apricot Designs), such that 5 uL/well HBSS was remaining at the end of each wash. […] At this step, the final in-well DMSO concentration in the assay plate is 0.5%. All compounds were plated in a duplicate 8-point dilution series that consisted of 3-fold dilutions. […] Afterwards, 15 uL/well of 3.2 mM hot:cold leucine solution (1:15000 ratio of L-[3,4,5-3H(N)] Leucine (Perkin Elmer, NET460001MC) to L-Leucine (Sigma-Aldrich, L8912-25G) diluted with HBSS (Sigma-Aldrich, H8264-1L)) was added using the Viaflo 384 (Integra), for a final concentration of 1.6 mM hot:cold leucine solution. The plates were then incubated (humidified, 37° C. with 5% CO2) for 20 minutes to conduct the uptake reaction. Immediately after the incubation, the plates were washed 4 times with HBSS (Sigma-Aldrich, H8264-1L) using the ELx405 Microplate Washer (Biotek) to terminate the uptake reaction. After the washes, 50 uL/well Ultima Gold Scintillation Cocktail (Perkin Elmer, 6013326) was added to each well using the Viaflo 384 (Integra). The plates were then incubated (humidified, 37° C. with 5% CO2) on a plate shaker at 200 rpm for 2 hours. After incubation, the plates were removed from the shaker and kept at room temperature for 15 minutes.
Liquid scintillation analysis was performed using the MicroBeta2 Microplate Counter (Perkin Elmer). Activity (%) was derived by normalizing the average of positive control compound treated wells to 0% and the average of DMSO (negative control) wells to 100%. Collaborative Drug Discovery software was used for graphing data.

human SLC6A19 [2] = biological target: T1, human SLC6A19; experiment: Example B2: 13C6,15N-isoleucine uptake, RapidFire mass spectrometry, in CHO cells with doxycycline-inducible expression of human SLC6A19 and TMEM27; assay type: cell-based; settings: read-out: SLC6A19_RapidFire Uptake Assay IC50
How it was run: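 CHO cells were induced with doxycycline to express human SLC6A19 with TMEM27, then pre-incubated 20 min at 37 °C with compounds (2-fold, 10-point, duplicate). Uptake of 13C6,15N-isoleucine (2 mM solution added) over a further 20 min was measured by RapidFire mass spectrometry, using 13C-leucine as internal standard.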

With `CNC(=O)N1CCC[C@@H](N(C)C(=O)NCc2cc3cc(Cl)ccc3[nH]2)C1` [Compound 171, (R)-3-(3-((5-chloro-1H-indol-2-yl)methyl)-1-methylureido)-N-methylpiperidine-1-carboxamide] the pIC50 (human SLC6A19 [1]) was 6.82 and the pIC50 (human SLC6A19 [2]) was 7.09.
In the case of `Cc1ocnc1C(=O)N1CCC[C@@H](N(C)C(=O)NCc2cc3cc(Cl)ccc3[nH]2)C1` [Compound 187, (R)-3-((5-chloro-1H-indol-2-yl)methyl)-1-methyl-1-(1-(5-methyloxazole-4-carbonyl)piperidin-3-yl)urea], the pIC50 (human SLC6A19 [1]) was 5.91 and the pIC50 (human SLC6A19 [2]) was 5.56.
In the case of `CN(C(=O)NCc1cc2cc(Cl)ccc2[nH]1)[C@@H]1CCCN(C(=O)Cc2ccncc2)C1` [Compound 188, (R)-3-((5-chloro-1H-indol-2-yl)methyl)-1-methyl-1-(1-(2-(pyridin-4-yl)acetyl)piperidin-3-yl)urea], the pIC50 (human SLC6A19 [1]) was 6.18 and the pIC50 (human SLC6A19 [2]) was 6.02.
In the case of `CN(C(=O)NCc1cc2cc(Cl)ccc2[nH]1)[C@@H]1CCCN(C(=O)c2ccc(O)cc2)C1` [Compound 189, (R)-3-((5-chloro-1H-indol-2-yl)methyl)-1-(1-(4-hydroxybenzoyl)piperidin-3-yl)-1-methylurea], the pIC50 (human SLC6A19 [1]) was 6.58 and the pIC50 (human SLC6A19 [2]) was 6.42.
`CN(C(=O)NCc1cc2cc(Cl)ccc2[nH]1)[C@@H]1CCCN(C(=O)c2cccc(O)c2)C1` [Compound 190, (R)-3-((5-chloro-1H-indol-2-yl)methyl)-1-(1-(3-hydroxybenzoyl)piperidin-3-yl)-1-methylurea] showed a pIC50 (human SLC6A19 [1]) of 6.32 and a pIC50 (human SLC6A19 [2]) of 6.24.
Molecule `CN(C(=O)NCc1cc2cc(Cl)ccc2[nH]1)[C@@H]1CCCN(C(=O)c2ccn[nH]2)C1` [Compound 191, (R)-1-(1-(1H-pyrazole-5-carbonyl)piperidin-3-yl)-3-((5-chloro-1H-indol-2-yl)methyl)-1-methylurea] has a pIC50 (human SLC6A19 [1]) of 6.82 and a pIC50 (human SLC6A19 [2]) of 6.51.
Molecule `CN(C(=O)NCc1cc2cc(Cl)ccc2[nH]1)[C@@H]1CCCN(C(=O)Cc2ccno2)C1` [Compound 194, (R)-3-((5-chloro-1H-indol-2-yl)methyl)-1-(1-(2-(isoxazol-5-yl)acetyl)piperidin-3-yl)-1-methylurea] has a pIC50 (human SLC6A19 [1]) of 6.71 and a pIC50 (human SLC6A19 [2]) of 6.62.
`CC(=O)N1CCC[C@@H](N(CC(F)(F)F)C(=O)NCc2cc3cc(Cl)ccc3[nH]2)C1` [Compound 195, (R)-1-(1-acetylpiperidin-3-yl)-3-((5-chloro-1H-indol-2-yl)methyl)-1-(2,2,2-trifluoroethyl)urea] was tested, and the pIC50 (human SLC6A19 [1]) was 6.99 and the pIC50 (human SLC6A19 [2]) was 7.21.
In the case of `CN(C(=O)NCc1cc2cc(Cl)ccc2[nH]1)[C@@H]1CCCN(C(=O)c2ccccc2O)C1` [Compound 196, (R)-3-((5-chloro-1H-indol-2-yl)methyl)-1-(1-(2-hydroxybenzoyl)piperidin-3-yl)-1-methylurea], the pIC50 (human SLC6A19 [1]) was 6.19 and the pIC50 (human SLC6A19 [2]) was 6.29.
`CN(C(=O)NCc1cc2cc(Cl)ccc2[nH]1)[C@@H]1CCCN(C(=O)Cc2ccn(C)n2)C1` [Compound 197, (R)-3-((5-chloro-1H-indol-2-yl)methyl)-1-methyl-1-(1-(2-(1-methyl-1H-pyrazol-3-yl)acetyl)piperidin-3-yl)urea] was tested, and the pIC50 (human SLC6A19 [1]) was 6.66 and the pIC50 (human SLC6A19 [2]) was 6.40.
With `CN(C(=O)NCc1cc2cc(Cl)ccc2[nH]1)[C@@H]1CCCN(C(=O)c2ccn(CC(F)(F)F)n2)C1` [Compound 198, (R)-3-((5-chloro-1H-indol-2-yl)methyl)-1-methyl-1-(1-(1-(2,2,2-trifluoroethyl)-1H-pyrazole-3-carbonyl)piperidin-3-yl)urea] the pIC50 (human SLC6A19 [1]) was 6.63 and the pIC50 (human SLC6A19 [2]) was 6.79.
`CN(C(=O)NCc1cc2cc(Cl)ccc2[nH]1)[C@@H]1CCCN(C(=O)Cc2cn[nH]c2)C1` [Compound 199, (R)-1-(1-(2-(1H-pyrazol-4-yl)acetyl)piperidin-3-yl)-3-((5-chloro-1H-indol-2-yl)methyl)-1-methylurea] was tested, and the pIC50 (human SLC6A19 [1]) was 6.36 and the pIC50 (human SLC6A19 [2]) was 6.24.
With `Cc1nc(C(=O)N2CCC[C@@H](N(C)C(=O)NCc3cc4cc(Cl)ccc4[nH]3)C2)co1` [Compound 200, (R)-3-((5-chloro-1H-indol-2-yl)methyl)-1-methyl-1-(1-(2-methyloxazole-4-carbonyl)piperidin-3-yl)urea] the pIC50 (human SLC6A19 [1]) was 6.46 and the pIC50 (human SLC6A19 [2]) was 6.29.
Work on `CN(C(=O)NCc1cc2cc(Cl)ccc2[nH]1)[C@@H]1CCCN(C(=O)Cc2ccon2)C1` [Compound 201, (R)-3-((5-chloro-1H-indol-2-yl)methyl)-1-(1-(2-(isoxazol-3-yl)acetyl)piperidin-3-yl)-1-methylurea] yielded a pIC50 (human SLC6A19 [1]) of 6.69 and a pIC50 (human SLC6A19 [2]) of 6.64.
Work on `CN(C(=O)NCc1cc2cc(Cl)ccc2[nH]1)[C@@H]1CCCN(C(=O)Cc2cocn2)C1` [Compound 202, (R)-3-((5-chloro-1H-indol-2-yl)methyl)-1-methyl-1-(1-(2-(oxazol-4-yl)acetyl)piperidin-3-yl)urea] yielded a pIC50 (human SLC6A19 [1]) of 6.77 and a pIC50 (human SLC6A19 [2]) of 6.16.
With `CN(C(=O)NCc1cc2cc(Cl)ccc2[nH]1)[C@@H]1CCCN(C(=O)Cc2ncco2)C1` [Compound 204, (R)-3-((5-chloro-1H-indol-2-yl)methyl)-1-methyl-1-(1-(2-(oxazol-2-yl)acetyl)piperidin-3-yl)urea] the pIC50 (human SLC6A19 [1]) was 6.59 and the pIC50 (human SLC6A19 [2]) was 6.12.
`CCc1ccc2[nH]c(CNC(=O)N(C)[C@@H]3CCCN(C(C)=O)C3)cc2c1` [Compound 217, (R)-1-(1-acetylpiperidin-3-yl)-3-((5-ethyl-1H-indol-2-yl)methyl)-1-methylurea] gave a pIC50 (human SLC6A19 [1]) of 6.24 and a pIC50 (human SLC6A19 [2]) of 6.13.
`CC(=O)N1CCC[C@@H](N(C)C(=O)NCc2cc3cc(C)ccc3[nH]2)C1` [Compound 218, (R)-1-(1-acetylpiperidin-3-yl)-1-methyl-3-((5-methyl-1H-indol-2-yl)methyl)urea] gave a pIC50 (human SLC6A19 [1]) of 6.56 and a pIC50 (human SLC6A19 [2]) of 6.19.
For `CCc1ccc2cc(CNC(=O)N(C)[C@@H]3CCCN(C(C)=O)C3)[nH]c2c1` [Compound 219, (R)-1-(1-acetylpiperidin-3-yl)-3-((6-ethyl-1H-indol-2-yl)methyl)-1-methylurea], the pIC50 (human SLC6A19 [1]) was < 5.00 and the pIC50 (human SLC6A19 [2]) was 4.89.
`CC(=O)N1CCC[C@@H](N(C)C(=O)NCc2cc3cc(C4CC4)ccc3[nH]2)C1` [Compound 220, (R)-1-(1-acetylpiperidin-3-yl)-3-((5-cyclopropyl-1H-indol-2-yl)methyl)-1-methylurea] was tested, and the pIC50 (human SLC6A19 [1]) was 6.10 and the pIC50 (human SLC6A19 [2]) was 6.02.
